Test results as given in article PMC9967275, “Screening the Pathogen Box to Discover and Characterize New Cruzain and TbrCatL Inhibitors” (Pathogens, 2023).
Like-named read-outs stand apart in the source and are kept apart here.

Assays:
[1] = target: cruzain (Trypanosoma cruzi, UniProt P25779); experiment: biochemical;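 as to Cruzain 0’ Inhibition: at 5 µM compound concentration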;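 as to Cruzain 10’ Inhibition: at 5 µM compound concentration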;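 as to Cruzain Inhibition 0’: at 5 µM compound concentration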;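 as to Cruzain Inhibition 10’: at 5 µM compound concentration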
Chain of cruzain (P25779 123-337 limits assumed): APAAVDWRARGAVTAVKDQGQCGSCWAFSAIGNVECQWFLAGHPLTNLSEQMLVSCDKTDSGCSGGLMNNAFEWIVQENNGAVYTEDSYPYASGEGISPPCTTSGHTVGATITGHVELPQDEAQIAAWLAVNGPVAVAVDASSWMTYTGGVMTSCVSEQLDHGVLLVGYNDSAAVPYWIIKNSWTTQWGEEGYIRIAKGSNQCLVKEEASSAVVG
In short: (§1)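 Recombinant enzymes assayed by Z-Phe-Arg-AMC cleavage at 25 °C, fluorescence 340/440 nm over 5–7 min, with 10 min or no enzyme–compound preincubation.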

[2] = target: T1, TbrCatL (Trypanosoma brucei rhodesiense, UniProt Q95PM0); experiment: TbrCatL enzymatic inhibition assay (cleavage of fluorogenic substrate Z-FR-AMC); format: biochemical; conditions: for TbrCatL 0’ Inhibition / TbrCatL 10’ Inhibition: sheet "Screening results";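 as to TbrCatL 0’ Inhibition: at 5 µM compound concentration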;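 as to TbrCatL 10’ Inhibition: at 5 µM compound concentration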;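 as to TbrCatL Inhibition 0’: at 5 µM compound concentration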;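 as to TbrCatL Inhibition 10’: at 5 µM compound concentration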
T1 construct: Conor Caffrey (University of California San Diego)
T1 sequence (Q95PM0 entry or part of it): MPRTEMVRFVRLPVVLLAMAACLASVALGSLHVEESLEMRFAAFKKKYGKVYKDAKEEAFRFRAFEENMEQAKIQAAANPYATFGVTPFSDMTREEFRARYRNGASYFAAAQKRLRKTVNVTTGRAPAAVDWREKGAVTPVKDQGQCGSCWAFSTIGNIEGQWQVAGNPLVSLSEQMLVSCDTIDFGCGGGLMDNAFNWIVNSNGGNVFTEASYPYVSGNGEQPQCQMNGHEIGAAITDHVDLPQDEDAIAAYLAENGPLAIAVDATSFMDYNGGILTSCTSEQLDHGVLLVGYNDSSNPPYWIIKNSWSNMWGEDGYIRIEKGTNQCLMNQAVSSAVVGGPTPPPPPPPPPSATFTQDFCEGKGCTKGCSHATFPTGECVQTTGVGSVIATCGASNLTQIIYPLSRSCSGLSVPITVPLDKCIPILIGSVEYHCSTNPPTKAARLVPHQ
In short: as §1

[3] = 0’ (pre-incubation time), sheet "Screening results"
[4] = 10’ (pre-incubation time), sheet "Screening results"
[5] = 0’ (pre-incubation time), Pathogen Box screening results
[6] = 10’ (pre-incubation time), Pathogen Box screening results
[7] = 0’ (no pre-incubation), sheet Screening results
[8] = 10’ (pre-incubation), sheet Screening results

| SMILES | Cruzain 0’ Inhibition [1, 3] | Cruzain 10’ Inhibition [1, 4] | TbrCatL 0’ Inhibition ([2]; 0’ (pre-incubation time)) | TbrCatL 10’ Inhibition ([2]; 10’ (pre-incubation time)) | Cruzain Inhibition 0’ [1, 7] | Cruzain Inhibition 10’ [1, 8] | TbrCatL Inhibition 0’ [2, 7] | TbrCatL Inhibition 10’ [2, 8] | other results |
| --- | --- | --- | --- | --- | --- | --- | --- | --- | --- |
| COc1ccc(-c2onc(C(F)(F)F)c2-c2ccc(Cl)cc2)c(O)c1 [MMV688766] | 1% | -2.5% | 0% | -5% | – | – | – | – | – |
| Clc1ccc(-n2cc(COc3ccnc4ccccc34)nn2)cc1 [MMV675994] | 5% | 14% | -1.8% | 11% | – | – | – | – | – |
| Nc1nccc2ccc(Oc3ccncc3)cc12 [MMV026313] | – | – | – | – | – | – | – | – | Cruzain Inhibition 0’ [1, 5]: -0.8%; Cruzain Inhibition 10’ [1, 6]: 8%; TbrCatL Inhibition 0’ [2, 5]: 0.4%; TbrCatL Inhibition 10’ [2, 6]: 19% |
| COc1ccccc1OCCCCn1c(C2CC2)nc2ccccc21 [MMV676474] | – | – | – | – | -7% | -11% | -3.8% | -17% | – |
| O=C(NCCN1CCCC1)c1cc(NCCCCN2CCC(F)(F)CC2)nc2ccc(Cl)cc12 [MMV667494] | – | – | – | – | – | – | – | – | inhibition at 5 µM ([1]; read-out: Cruzain 0’ Inhibition, 0’ (pre-incubation time), sheet "Screening results"): 39%; inhibition at 5 µM ([1]; read-out: Cruzain 10’ Inhibition, 10’ (pre-incubation time), sheet "Screening results"): 53%; inhibition at 5 µM ([1]; read-out: Inhibition at 5 µM (Mean ± SEM %) Cruzain 0′, 5 µM, no pre-incubation, initial screening): 40 ± 1%; inhibition at 5 µM ([1]; read-out: Inhibition at 5 µM (Mean ± SEM %) Cruzain 10′ inc, 5 µM, 10′ pre-incubation, initial screening): 53 ± 1%; inhibition at 100 µM ([1]; read-out: Inhibition at 100 µM (Mean ± SEM %) Cruzain 0′, 100 µM, no pre-incubation, solid samples): 0%; inhibition at 100 µM ([1]; read-out: Inhibition at 100 µM (Mean ± SEM %) Cruzain 10′ inc, 100 µM, 10′ pre-incubation, solid samples): 70 ± 3%; inhibition at 5 µM ([1]; read-out: Inhibition of cruzain or TbrCatL (either enzyme) in the initial screening, 5 µM, either cruzain or TbrCatL, with or without pre-incubation): ≥ 60%; inhibition at 5 µM ([2]; read-out: Inhibition at 5 µM (Mean ± SEM %) TbrCatL 0′): 31 ± 5%; inhibition at 5 µM ([2]; read-out: Inhibition at 5 µM (Mean ± SEM %) TbrCatL 10′ inc): 73 ± 1%; inhibition at 100 µM ([2]; read-out: Inhibition at 100 µM (Mean ± SEM %) TbrCatL 0′): 0%; inhibition at 100 µM ([2]; read-out: Inhibition at 100 µM (Mean ± SEM %) TbrCatL 10′ inc): 11 ± 8%; inhibition at 5 µM ([2]; read-out: TbrCatL 0’ Inhibition): 32%; inhibition at 5 µM ([2]; read-out: TbrCatL 10’ Inhibition): 73% |
| COc1ccc(C2CC(c3cccs3)=NN2C(=O)c2ccco2)cc1OC (stereo not shown) [MMV019234] | – | – | – | – | 6.6% | 8% | 7% | 22% | – |
| CCC(Sc1nc2ccccc2o1)C(=O)Nc1nnc(C)s1 (stereo not shown) [MMV611037] | 0.2% | 4% | 6% | 5% | – | – | – | – | – |
| Cc1ccc(S(=O)(=O)n2cc(-c3ccnc(N)c3)c3cc(Br)cnc32)cc1 [MMV024114] | -9% | 15% | -5% | 1.6% | – | – | – | – | – |
| CC1=NN(c2nc3ccccc3s2)C(=O)C1Cc1cccc2ccccc12 (stereo not shown) [MMV676558] | – | – | – | – | -23% | -18% | -23% | -63% | – |
| O=S(=O)(c1ccc(Cl)cc1)N1CCN(C(=S)NCc2ccco2)CC1 [MMV000858] | – | – | – | – | 8% | 13% | 0.9% | 6% | – |
| NC(=O)c1cc(Br)ccc1OCCOc1ccccc1 [MMV687243] | – | – | – | – | 8% | 8% | -2.4% | -18% | – |
| Cc1cc(Cl)ccc1NC(=O)CCc1ccc(S(=O)(=O)NCC(C)C)cc1 [MMV161996] | – | – | – | – | – | – | – | – | Cruzain Inhibition 0’ [1, 5]: -2.2%; Cruzain Inhibition 10’ [1, 6]: 9%; TbrCatL Inhibition 0’ [2, 5]: 15%; TbrCatL Inhibition 10’ [2, 6]: 1.5% |
| CCCCc1ccc(NC(=O)Nc2ccc(O[C@H]3CCCC[C@@H]3N(C)c3ccccc3)c(F)c2)cc1 [MMV676063] | -13% | -3.3% | -17% | -15% | – | – | – | – | – |
| CC(C)(C)c1cc(C(=O)N2CCN(c3nccnc3C#N)CC2)n(Cc2ccccc2)n1 [MMV023949] | -0.2% | 6% | 12% | -3% | – | – | – | – | – |
| CS(=O)(=O)c1cccc(-c2cnc3[nH]cc(-c4ccc(CCC(=O)O)cc4)c3c2)c1 [MMV026020] | – | – | – | – | 12% | 17% | 15% | 20% | – |
| CNc1snc(C)c1C(=O)NCCOc1ccc(OC)cc1 [MMV688554] | – | – | – | – | -8% | -4.6% | -7% | -8% | – |

| SMILES | Cruzain 0’ Inhibition [1, 3] | Cruzain 10’ Inhibition [1, 4] | TbrCatL 0’ Inhibition ([2]; 0’ (pre-incubation time)) | TbrCatL 10’ Inhibition ([2]; 10’ (pre-incubation time)) | Cruzain Inhibition 0’ [1, 7] | Cruzain Inhibition 10’ [1, 8] | TbrCatL Inhibition 0’ [2, 7] | TbrCatL Inhibition 10’ [2, 8] | other results |
| --- | --- | --- | --- | --- | --- | --- | --- | --- | --- |
| Cc1nn(C)c(C)c1NS(=O)(=O)c1c(Cl)cc(-c2ccnc(N3CCNCC3)c2)cc1Cl [MMV688180] | -4% | 10% | -7% | 28% | – | – | – | – | – |
| CCOC(=O)c1c(NC(=O)c2c(F)c(F)c(F)c(F)c2F)sc(C(N)=O)c1C [MMV153413] | 0.7% | 23% | 1.1% | 39% | – | – | – | – | – |
| CCC(Sc1nc2ccccc2o1)C(=O)Nc1nccs1 (stereo not shown) [MMV676383] | – | – | – | – | 3.5% | 4% | 10% | 7.5% | – |
| O=C(CCC1CCCCC1)Nc1cccc(-c2nnc(-c3ccco3)o2)c1 [MMV676589] | – | – | – | – | 0% | 4% | 3.3% | 4.4% | – |
| c1cncc(NCc2ccc(-c3cc4ccncc4cc3OC3CCNCC3)s2)c1 [MMV023969] | 29% | 31% | 19% | 17% | – | – | – | – | – |
| Clc1ccc(Cl)c(CO[C@H]2CCCC[C@@H]2n2ccnc2)c1 [MMV676048] | 2.8% | 5.7% | 0.8% | -3.8% | – | – | – | – | – |
| CC1=Nc2ccc(Cl)cc2C(c2ccccc2)N1CCNC(=O)CN(C)C (stereo not shown) [MMV688410] | -0.5% | 3.8% | -4.7% | -3.5% | – | – | – | – | – |
| c1ccc(Oc2ccc(-c3cncc(-c4ccc5[nH]ccc5c4)n3)cc2)cc1 [MMV688178] | -6% | -6% | -10% | -21% | – | – | – | – | – |
| CCOc1ccc2cc(-c3nn(C(C)(C)C)c(N)c3C(N)=O)cnc2c1 [MMV688853] | – | – | – | – | 5.4% | 4% | 7% | -4% | – |
| CCCCc1ccc(C(=O)Nc2nccc3ccccc23)nc1 [MMV687254] | -10% | -5% | -7% | -2.6% | – | – | – | – | – |
| O=C(Nc1ccc(N2CCNCC2)cc1)c1ccn2ncc(-c3cccc(Cl)c3)c2n1 [MMV022478] | 15% | 18% | 1.7% | 10% | – | – | – | – | – |
| Cc1ccccc1CN1CCC(O)(c2ccc(Cl)c(C(F)(F)F)c2)CC1 [MMV688846] | – | – | – | – | 10% | 3% | 2.5% | -17% | – |
| COc1ccc(-c2cnc3ccc(N4CCCC4)nn23)cc1OC [MMV023985] | -3.2% | -13% | -7% | -1% | – | – | – | – | – |
| Cc1ccc(NC(=O)c2cc(S(=O)(=O)NC(C)(C)C)ccc2C)nc1 [MMV020289] | 1% | 1.9% | 1.9% | 1.3% | – | – | – | – | – |
| Cc1cc(Nc2ccc(C(F)(F)F)cc2)n2ccnc2n1 [MMV011229] | -0.9% | 1.4% | -1% | 6% | – | – | – | – | – |
